Assay results as given in patent US8946142B2, “Beta-arrestin effectors and compositions and methods of use thereof” (Trevena, Inc., priority 2012, dated 2015).
Where a SMILES comes first, the peptide text is derived from it. [ ]: non-standard residue; d: D form. Ac6c = NC1(C(=O)O)CCCCC1; Ac5c = NC1(C(=O)O)CCCC1; Sar = CNCC(=O)O

Tests used:
Format in all cases: cell-based
[1] = biological target: T1, human AT1R (Homo sapiens, UniProt P30556); assay: IP1 accumulation assay (IP1 G-protein assay), human AT1R; conditions: for Emax: read-out: Span (relative to hAngII)
T1 sequence (P30556 1-359): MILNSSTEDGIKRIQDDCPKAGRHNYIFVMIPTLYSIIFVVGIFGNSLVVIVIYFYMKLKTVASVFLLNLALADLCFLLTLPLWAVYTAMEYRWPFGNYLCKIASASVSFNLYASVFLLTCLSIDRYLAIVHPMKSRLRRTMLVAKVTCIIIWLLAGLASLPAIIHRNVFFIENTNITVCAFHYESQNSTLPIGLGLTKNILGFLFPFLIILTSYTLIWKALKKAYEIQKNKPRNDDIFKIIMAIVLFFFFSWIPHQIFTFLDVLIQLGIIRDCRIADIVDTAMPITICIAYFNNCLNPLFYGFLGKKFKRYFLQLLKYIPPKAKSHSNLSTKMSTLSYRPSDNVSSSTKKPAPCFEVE
Procedure: (§1) A secondary measure of G protein coupling efficacy was also performed. IP3 is generated by activation of phospholipase C by Gα-q. IP3 is degraded to IP1, which can be forced to accumulate in cells by blocking degradation with lithium chloride. Thus we measured accumulation of IP1 to determine ligand efficacy for G protein activation.
(§2) IP1 accumulation generated by human and rat angiotensin 2 type 1 receptor (human AT1R and rat AT1aR, respectively) was measured with IP-One Tb kits purchased from Cisbio and used per the manufacturer's instructions. Clonal stably transfected cell lines expressing human AT1TR or rat AT1aR were used for all experiments.
(§3) For assays, 4,000-8,000 cells were seeded per well in 384-well small-volume microplates “HiBase” small-volume plate in volumes of 20 uL and allowed to grow overnight at 37° C. in 5% CO2. Cell growth media was then replaced with stimulation buffer supplied by Cisbio containing 50 mM lithium chloride. […] For agonist detection, peptides were then further diluted in stimulation buffer to add peptide to the cells to reach final concentrations ranging from 100 uM to 1 pM. Following addition of peptides, cells were incubated at 37° C. in 5% CO2 for 30 minutes and then lysed with 4 uL of pre-mixed HTRF IP-One reagents diluted per manufacturer's instructions (Cisbio). Microplates were incubated for 60-90 minutes at room temperature and then time-resolved fluorescence intensities were measured using a PHERAstar Plus microplate reader from BMG Labtech. IP1 accumulation was measured as change in ratio of time-resolved fluorescent intensities measured at 665 nm and 620 nm.

[2] = biological target: T2, rat AT1aR (Rattus norvegicus, UniProt P25095); assay: IP1 accumulation assay (IP1 G-protein assay), rat AT1aR; conditions: for Emax: read-out: Span (relative to hAngII)
T2 sequence (P25095 1-359): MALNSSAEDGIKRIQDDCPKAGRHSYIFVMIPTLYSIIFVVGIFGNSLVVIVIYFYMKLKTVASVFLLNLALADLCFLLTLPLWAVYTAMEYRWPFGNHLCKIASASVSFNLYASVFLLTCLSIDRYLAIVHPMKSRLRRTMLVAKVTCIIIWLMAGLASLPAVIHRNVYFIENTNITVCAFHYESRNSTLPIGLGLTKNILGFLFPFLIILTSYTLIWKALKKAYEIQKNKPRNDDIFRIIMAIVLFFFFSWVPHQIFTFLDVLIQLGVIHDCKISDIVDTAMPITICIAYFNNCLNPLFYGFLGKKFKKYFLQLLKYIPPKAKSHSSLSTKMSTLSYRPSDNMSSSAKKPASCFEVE
Procedure: as §1, §2, §3

[3] = biological target: T1, human AT1R; assay: beta-arrestin2 recruitment assay (PathHunter), human AT1R; conditions: for Emax: 1 h, read-out: Span (relative to hAngII)
How it was run: (§4)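 PathHunter enzyme-complementation assay in HEK293 cells stably expressing ProLink-tagged human AT1R or rat AT1aR; peptides (final 100 μM–1 pM) in HBSS/20 mM HEPES for 60 min at 37 °C. Detection reagent 60 min at room temperature; β-arrestin-2 recruitment read as relative luminescence.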

[4] = biological target: T2, rat AT1aR; assay: beta-arrestin2 recruitment assay (PathHunter), rat AT1aR; conditions: for Emax: 1 h, read-out: Span (relative to hAngII)
How it was run: as §4

Structure (SMILES)	EC50 ([1]; read-out: EC50)	Emax [1]	EC50 ([1]; read-out: pEC50 (converted))	EC50 ([2]; read-out: EC50)	Emax [2]	Emax [3]	EC50 ([3]; read-out: EC50)	Emax [4]	EC50 ([4]; read-out: EC50)	EC50 ([2]; read-out: pEC50 (converted))	EC50 ([3]; read-out: pEC50 (converted))	EC50 ([4]; read-out: pEC50 (converted))
CNCC(=O)N[C@@H](CCCNC(=N)N)C(=O)N[C@H](C(=O)N[C@@H](Cc1ccc(O)cc1)C(=O)NC1(C(=O)N[C@@H](Cc2c[nH]cn2)C(=O)N2CCC[C@H]2C(=O)N[C@@H](Cc2ccccc2)C(=O)O)CCCCC1)C(C)C [SEQ ID NO: 17, Sar-Arg-Val-Tyr-cyHex-His-Pro-Phe] (H-[Sar]RVY[Ac6c]HPF-OH; N-terminus and C-terminus assumed)	< 1.3 nM	< 103%	> 0.631 nM	> 0.6 nM	> 104%	> 101%	> 3.2 nM	< 105%	3.2 nM			
CC[C@H](C)[C@H](NC(=O)[C@@H]1CCCN1C(=O)[C@H](Cc1c[nH]cn1)NC(=O)C1(NC(=O)[C@H](Cc2ccc(O)cc2)NC(=O)[C@@H](NC(=O)[C@H](CCCN=C(N)N)NC(=O)CNC)C(C)C)CCCC1)C(=O)O [SEQ ID NO: 18, Sar-Arg-Val-Tyr-cyPen-His-Pro-Ile] (H-[Sar]RVY[Ac5c]HPI-OH)	> 1.3 nM		> 0.631 nM	> 0.6 nM			> 3.2 nM		> 3.2 nM	> 0.631 nM	> 3.16 nM	> 3.16 nM
CC[C@H](C)[C@H](NC(=O)[C@@H]1CCCN1C(=O)[C@H](Cc1c[nH]cn1)NC(=O)C1(NC(=O)[C@H](Cc2ccc(O)cc2)NC(=O)[C@@H](NC(=O)[C@H](CCCNC(=N)N)NC(=O)CNC)C(C)C)CCCC1)C(=O)O [SEQ ID NO: 18, Sar-Arg-Val-Tyr-cyPen-His-Pro-Ile] (H-[Sar]RVY[Ac5c]HPI-OH)		< 103%			< 104%	< 101%		< 105%				
CNCC(=O)N[C@@H](CCCNC(=N)N)C(=O)N[C@H](C(=O)N[C@@H](Cc1ccc(O)cc1)C(=O)NC1(C(=O)N[C@@H](Cc2c[nH]cn2)C(=O)N2CCC[C@H]2C(=O)N[C@@H](CC(C)C)C(=O)O)CCCC1)C(C)C [SEQ ID NO: 19, Sar-Arg-Val-Tyr-cyPen-His-Pro-Leu] (H-[Sar]RVY[Ac5c]HPL-OH)	> 1.3 nM	< 103%	> 0.631 nM	> 0.6 nM		< 101%	> 3.2 nM	< 105%	> 3.2 nM	> 0.631 nM	> 3.16 nM	> 3.16 nM
CNCC(=O)N[C@@H](CCCNC(=N)N)C(=O)N[C@H](C(=O)N[C@@H](Cc1ccc(O)cc1)C(=O)NC1(C(=O)N[C@@H](Cc2c[nH]cn2)C(=O)N2CCC[C@H]2C(=O)N[C@H](C(=O)O)C(C)C)CCCC1)C(C)C [SEQ ID NO: 20, Sar-Arg-Val-Tyr-cyPen-His-Pro-Val] (H-[Sar]RVY[Ac5c]HPV-OH)	> 1.3 nM	< 103%	> 0.631 nM	> 0.6 nM	< 104%	< 101%	> 3.2 nM	< 105%	> 3.2 nM	> 0.631 nM	> 3.16 nM	> 3.16 nM
CNCC(=O)N[C@@H](CCCNC(=N)N)C(=O)N[C@H](C(=O)N[C@@H](Cc1ccc(O)cc1)C(=O)NC1(C(=O)N[C@@H](Cc2c[nH]cn2)C(=O)N2CCC[C@H]2C(=O)N[C@H](C(=O)O)[C@@H](C)O)CCCC1)C(C)C [SEQ ID NO: 21, Sar-Arg-Val-Tyr-cyPen-His-Pro-Thr] (H-[Sar]RVY[Ac5c]HPT-OH)	> 1.3 nM		> 0.631 nM	> 0.6 nM	< 104%	< 101%	> 3.2 nM	< 105%	> 3.2 nM	> 0.631 nM	> 3.16 nM	> 3.16 nM
CNCC(=O)N[C@@H](CCCNC(=N)N)C(=O)N[C@H](C(=O)N[C@@H](Cc1ccc(O)cc1)C(=O)NC1(C(=O)N[C@@H](Cc2c[nH]cn2)C(=O)N2CCC[C@H]2C(=O)N[C@@H](CO)C(=O)O)CCCC1)C(C)C [SEQ ID NO: 22, Sar-Arg-Val-Tyr-cyPen-His-Pro-Ser] (H-[Sar]RVY[Ac5c]HPS-OH)	> 1.3 nM		> 0.631 nM	> 0.6 nM	< 104%	< 101%	> 3.2 nM	< 105%	> 3.2 nM	> 0.631 nM	> 3.16 nM	> 3.16 nM
CNCC(=O)N[C@@H](CCCNC(=N)N)C(=O)N[C@H](C(=O)N[C@@H](Cc1ccc(O)cc1)C(=O)NC1(C(=O)N[C@@H](Cc2c[nH]cn2)C(=O)N2CCC[C@H]2C(=O)N[C@@H](CCSC)C(=O)O)CCCC1)C(C)C [SEQ ID NO: 23, Sar-Arg-Val-Tyr-cyPen-His-Pro-Met] (H-[Sar]RVY[Ac5c]HPM-OH)	> 1.3 nM	< 103%	> 0.631 nM	> 0.6 nM	< 104%	< 101%	> 3.2 nM	< 105%	> 3.2 nM	> 0.631 nM	> 3.16 nM	> 3.16 nM
CNCC(=O)N[C@@H](CCCNC(=N)N)C(=O)N[C@H](C(=O)N[C@@H](Cc1ccc(O)cc1)C(=O)NC1(C(=O)N[C@@H](Cc2c[nH]cn2)C(=O)N2CCC[C@H]2C(=O)N[C@@H](Cc2ccccc2)C(=O)O)CCCC1)C(C)C [SEQ ID NO: 24, Sar-Arg-Val-Tyr-cyPen-His-Pro-Phe] (H-[Sar]RVY[Ac5c]HPF-OH)	< 1.3 nM	> 103%	> 0.631 nM	> 0.6 nM	< 104%	> 101%	> 3.2 nM	< 105%	> 3.2 nM	> 0.631 nM	> 3.16 nM	> 3.16 nM
CNCC(=O)N[C@@H](CCCNC(=N)N)C(=O)N[C@H](C(=O)N[C@@H](Cc1ccc(O)cc1)C(=O)NC1(C(=O)N[C@@H](Cc2c[nH]cn2)C(=O)N2CCC[C@H]2C(=O)N[C@@H](CCC(N)=O)C(=O)O)CCCCC1)C(C)C [SEQ ID NO: 38, Sar-Arg-Val-Tyr-cyHex-His-Pro-Gln] (H-[Sar]RVY[Ac6c]HPQ-OH)	> 1.3 nM	< 103%	> 0.631 nM	> 0.6 nM	< 104%	< 101%	> 3.2 nM	< 105%	> 3.2 nM	> 0.631 nM	> 3.16 nM	> 3.16 nM
CNCC(=O)N[C@@H](CCCNC(=N)N)C(=O)N[C@H](C(=O)N[C@@H](Cc1ccc(O)cc1)C(=O)NC1(C(=O)N[C@@H](Cc2c[nH]cn2)C(=O)N2CCC[C@H]2C(=O)N2CCC[C@H]2C(=O)O)CCCCC1)C(C)C [SEQ ID NO: 39, Sar-Arg-Val-Tyr-cyHex-His-Pro-Pro] (H-[Sar]RVY[Ac6c]HPP-OH)	> 1.3 nM	< 103%	> 0.631 nM	> 0.6 nM	< 104%	< 101%	> 3.2 nM	< 105%	> 3.2 nM	> 0.631 nM	> 3.16 nM	> 3.16 nM
CNCC(=O)N[C@@H](CCCNC(=N)N)C(=O)N[C@H](C(=O)N[C@@H](Cc1ccc(O)cc1)C(=O)NC1(C(=O)N[C@@H](Cc2c[nH]cn2)C(=O)N2CCC[C@H]2C(=O)N[C@@H](Cc2c[nH]c3ccccc23)C(=O)O)CCCCC1)C(C)C [SEQ ID NO: 54, Sar-Arg-Val-Tyr-cyHex-His-Pro-Trp] (H-[Sar]RVY[Ac6c]HPW-OH)	> 1.3 nM	< 103%	> 0.631 nM	> 0.6 nM	< 104%	< 101%	> 3.2 nM	< 105%	> 3.2 nM	> 0.631 nM	> 3.16 nM	> 3.16 nM
